Patent US20160194274A1, “PHENANTHRENE DERIVATIVES FOR USE AS MEDICAMENTS” (VALENTIA BIOPHARMA, priority 2012, published 2016)
Read-outs that look alike come from different tables or passages of the source.

Assays:
(CUG)23 RNA hairpin = experiment: 2-Aminopurine fluorescence assay of hairpin RNA unfolding; format: biochemical; details: (CUG)23 RNA, dose-range
Protocol: FIG. 7. […] Measurements of the fluorescence emitted (Y-axis), measured as relative fluorescence units (RFU), by 2-aminopurine in a (CUG)23 RNA (1 μM) in the presence of different compounds (dose-range approach), relative to the fluorescence emitted by the free RNA. […] These effects were not observed when incubating the RNA with DMSO (not shown), or with the small molecule pentamidine, published as a compound able to disrupt MBNL1 binding to CUG hairpins (Warf M B et al. Proc. Natl. Acad. Sci. USA 106:18551-56 (2009)). * indicates p-value <0.05 ** p-value <0.005 *** p-value p<0.0005.
Aminopurine Fluorescence assay to detect hairpin double strand RNA unfolding. An aliquot of 2-aminopurine (2AP)-CUG23 RNA (1 μM in binding buffer) was heated at 90° C. for 3 min, placed on ice, and further diluted to 30 nM in a final volume of 1 mL in binding buffer.

[1] = test system: ribonuclear foci in MyoD transformed fibroblasts derived from DM1 patients (>300 CTG repeats); experiment: FISH detection of aberrant ribonuclear foci in human DM1 fibroblasts; format: cell-based; details: 24 h treatment, vs no treatment
Protocol: FIG. 1. Quantification of aberrant ribonuclear foci (DM1 disease hallmark) in human DM1 fibroblasts. Treatments with the compounds of Formula I were performed (VLT002, VLT015, VLT025, VLT024, VLT042, VLT040, VLT023, VLT026, VLT048, VLT045, VLT043, VLT049, VLT051 VLT053 and VLT056). (A) Number (medium) of foci/nuclei (No treatment vs. compound treatment). (B) Number of cells without foci (No treatment vs. compound treatment). n=100 minimum number of cells counted. T-Student test: * indicates p-value <0.05 ** p-value p<0.005 *** p-value p<0.0005.
After screening identification of the compounds of the invention (see FIG. 10), main validation was done using Fluorescence In Situ Hybridization (FISH) detection of aberrant aggregation of ribonuclear foci in cell lines from DM1 patients (see FIG. 1) and in DM1 Drosophila model (see FIG. 2) (Garcia-Lopez et al., Proc. Natl. Acad. Sci. USA. 108(29):11866-71 (2011)). Briefly, regarding human cells, it was used MyoD transformed fibroblasts derived from clinically diagnosed DM1 patients (>300 CTG repeats) routinely growing in DMEM supplemented with 10% heat-inactivated fetal bovine serum and maintained at 37° C. in a humidified incubator containing 5% CO2. To detect ribonuclear foci, cells were cultured over cover-slides in flat bottomed 24-well plates, after 24 h compounds of the invention were added to the cells at desiderate concentration, 24 h later in situ hybridization was done by fixing with 4% paraformaldehyde (PFA) 15 min at room temperature, and washed and stored in 70% ethanol. Cells were rehydrated with PBS and pre-hybridized 10 min at room temperature with a pre-hybridization buffer (formamide 30%, 2× saline-sodium citrate buffer (SSC)). Hybridization was performed in a light-proof wet chamber using the same pre-hybridization buffer supplemented with 0.02% bovine serum albumin (BSA), 1 mg/ml yeast tRNA (Sigma), 2 mM sodium (meta)vanadate, 1 mg/ml sperm DNA, 10% dextran sulfate and 1 ng/μl RNase free HPCL-purified Cy3-labeled (CAG)10 RNA. After hybridization cells were washed 2×15 minutes at 45° C. with the pre-hybridization buffer and washed with 1×PBS at room temperature. Slides were mounted with Vectashield solution with DAPI and number of foci by cell and number of cells with/without foci (see FIG. 1) were counted in a minimum of 100 cells for each treatment and concentration tested with a 63× objective in a Leica microscope. Same FISH approach was performed in Drosophila DM1 flies, where thoraces were embedded in OCT and transversal sections were taken with a Leica CM 15105 cryomicrotome. Sections were processed for in situ hybridization and counting for number of foci by cell with the same Cy3-labeled (CAG)10 probe (see FIG. 2).

MBNL1 = experiment: Visualization and quantification of MBNL1 release in DM1 fibroblasts; format: cell-based, human; details: 100 μM
Protocol: FIG. 4. Visualization and quantification of MBNL1 release (A). Visualization of MBNL1 release for VLT002: Upper row: Untreated DM1 fibroblasts with MBNL1 localizing as ribonuclear foci (see dots in middle and right pictures) to the nucleus (DAPI, detected as gray spherical shadow in left and right pictures). […] (B) Quantification of the area (into the nucleus), where MBNL1 present (Photoshop software), reflects the MBNL1 release after VLT002, VLT025, VLT045, VLT049 and VLT040 treatment (100 μM).
At the same time human cells were recollected for foci counting. Some (150,000-300,000) were prepared for Muscleblind (MBNL1) detection (see FIG. 4). After PBS washes, cells were probed overnight, at 4° C. with anti-MBNL1 antibody (1:5000 dilutions, A2764 antibody) in 1×PBS. After washing cells with 1×PBS, cells were incubated with goat anti-rabbit Alexa 488 (1:500 dilution) for 2 h at RT. Cells were washed 2 times, for 10 min at room temperature with 1×PBS and then mounted onto glass slides using a hard-set mounting media that contains DAPI (Vectashield). Cells were imaged on a Leica microscope.

[2] = cited from earlier work
[3] = test system: indirect flight muscles of MHC-Gal4/+; UAS-i480CTGs/+ flies; experiment: Drosophila muscle histology (IFM muscle area); format: in vivo; details: 100 μM, adult IFM
Protocol: FIG. 3. Representative bright field microscopy images of transversal sections of resin-embedded adult IFM (indirect flight muscles) of MHC-Gal4/+; UAS-i480CTGs/+ flies that had been treated with DMSO (left) or with VLT024 (100 μM) (right).
Additional assays involved: • Reverse Transcription-PCR (RT-PCR) to detect levels of normal/aberrant splicing events in specific genes. This approach was performed in human cells from patients (see FIG. 5) or from DM1 mouse (see FIG. 8 up) (HSA^LR, Mankodi A et al., Science, 289:1769-1773 (2000)) tissues (skeletal muscle), from which total RNA was extracted from ˜0.5-1.5×10^5 cells using the Zygem Tissue Plus kit. Serca 1, Cypher or cTNNT genes reverse transcription were performed and quantification of normal/aberrant spliced band forms was obtained (ImageJ software) after running PCR products in 2% agarose gels. As shown in FIGS. 5 and 8 compounds of the invention are able to recover disease phenotypes. • Drosophila Muscle Histology, where five-day old Drosophila thoraces were embedded in Epon for transversal, semi-thin sectioning. Muscle area was quantified (see FIG. 3) by binarizing images (equal dimensions) and quantifying pixels (%) within muscle tissue with ImageJ software. […] A minimum of 8 flies were analyzed in each case.

FAM-(CUG)10 RNA = experiment: Gel retardation assay (fluorescence EMSA) with FAM-(CUG)10; format: binding
Protocol: FIG. 6. Study of the binding of some compounds of Formula I (VLT002, VLT025 and VLT026) to FAM-(CUG)10 (repeat tract present in DM1, HDL2, SCA8 diseases) by means of gel retardation assays.
Fluorescence Electrophoretic Mobility Shift Assay to test RNA-compound binding. Briefly, an aliquot of carboxyfluorescein (FAM)-CUG10 RNA (DM1, HDL2, SCA8; see FIG. 6) was heated at 70° C. for 5 min and diluted to 300 nM. The binding reaction with compounds was then carried out as described in (Garcia-Lopez A et al. Proc. Natl. Acad. Sci. USA. 108(29):11866-71 (2011)). The reaction mix was loaded onto 8% polyacrylamide nondenaturing gels, and electrophoresis was conducted at 4° C. in TB 1× for approximately 30 min at 240V, followed by fluorescence visualization. Quantification of the free RNA band intensity was carried out using the ImageJ software. A non-linear regression analysis was used to calculate EC50, based on a total of three experimental replicates. Same approach was developed with (FAM)-CCUG8 (DM2), CAG10 (SCA3), CGG10 (FXTAS), GGGGCC5 (ALS/FSD), UGGAA6 (SCA31) probes (see FIG. 9).

[4] = dose range of 5-40 mg/kg, compared to mexiletine

SMILES | aberrant ribonuclear foci: number of foci/nuclei (A) and/or number of cells without foci (B) [1] | also measured
N=C(N)c1ccc(OCCCCCOc2ccc(C(=N)N)cc2)cc1 [pentamidine, reference compound] | – | modification of the hairpin loops formed by the CUG repeats (2-AP fluorescence) ((CUG)23 RNA hairpin): not observed
COc1cc2c3c(c1OC)-c1ccccc1CC3N(C)CC2 (stereo not drawn) [VLT049] | significant reduction | MBNL1 sequestration / MBNL1 release (nuclear area where MBNL1 present) (MBNL1): relieve MBNL1 sequestration; formation of foci (MBNL1 ribonuclear foci) (MBNL1): effectively reduce the formation of foci
CC(=O)Oc1cc2ccc3c(CCN(C)C)cc(OC(C)=O)c(OC(C)=O)c3c2cc1OC(C)=O [VLT056] | significant reduction | –
C[N+]1(C)CCc2cc3c(c4c2c1cc1ccccc14)OCO3 [VLT042] | significant reduction | –
COc1cc(CC[N+](C)(C)C)c2ccc3ccccc3c2c1OC [VLT051] | significant reduction | –
CC(C)(C)NCC(O)c1cc(Cl)c(N)c(Cl)c1 (stereo not drawn) [clenbuterol] | – | antimyotonic effect [2, 4]: time-dependent antimyotonic effect
O=C1c2ccccc2-c2c3c(cc4ccnc1c24)OCO3 [VLT045] | significant reduction | MBNL1 sequestration / MBNL1 release (nuclear area where MBNL1 present) (MBNL1): relieve MBNL1 sequestration; formation of foci (MBNL1 ribonuclear foci) (MBNL1): effectively reduce the formation of foci
COc1cc2c(cc1O)CC1c3c(cc(O)c(OC)c3-2)CCN1C (stereo not drawn) [VLT015] | significant reduction | –
COc1cc2ccc3c(CC[N+](C)(C)C)cc(OC)c(OC)c3c2cc1OC [VLT024] | significant reduction | muscle area relative to DMSO-treated flies [3]: significant increase
C[N+](C)(C)CCc1cc(O)c(O)c2c1ccc1ccccc12 [VLT053] | significant reduction | –
CC(C)(C)NCC(O)COc1cccc2c1CC(O)C(O)C2 (stereo not drawn) [nadolol] | – | antimyotonic effect ([2]; in vivo): did not show any significant antimyotonic effect
CCNC(=O)Oc1cc2c(cc1OC)-c1c(OC)c(OC(=O)NCC)cc3c1C(C2)N(C)CC3 (stereo not drawn) [VLT048] | significant reduction | –
COc1cc(CCN(C)C)c2ccc3c(c2c1OC)=CC(OC)C(OC)C=3 (stereo not drawn) [VLT023] | significant reduction | modification of the hairpin loops formed by the CUG repeats (2-AP fluorescence) ((CUG)23 RNA hairpin): modify the hairpin loops
COc1cc2c(ccc3c(CCN(C)Cc4ccccc4)cc(OCc4ccccc4)c(OC)c32)cc1OCc1ccccc1 [VLT026] | significant reduction | binding to FAM-CUG10 (FAM-(CUG)10 RNA): bind to FAM-CUG10
CC(C)NCC(O)COc1cccc2ccccc12 (stereo not drawn) [propranolol] | – | antimyotonic effect [2, 4]: time-dependent antimyotonic effect
CC(C)(C)NCC(O)c1ccc(O)c(CO)c1 (stereo not drawn) [salbutamol] | – | antimyotonic effect ([2]; in vivo): did not show any significant antimyotonic effect
CC(=O)N1CCc2cc3c(c4c2C1Cc1ccccc1-4)OCO3 (stereo not drawn) [VLT043] | significant reduction | –
